In this assay the test system is FVIII-specific T cell hybridomas (peptides presented by HLA-DRB1*1501). Briefly: Peptide specificity of FVIII-specific T cell hybridomas (IL-2 release). It counts as cell-based, mouse. Particulars: during Factor VIII replacement therapy or connected with acquired hemophilia. The text has this:
To better mimic the human MHC class II molecule for identifying FVIII peptides, a mouse model was developed for hemophilia A with a chimeric MHC class II molecule carrying a human HLA-DRB1*1501 specific binding site. This mouse was backcrossed to a mouse carrying a complete knock out of all murine MHC class II genes (Reipert et al., J. Thromb. Haemost. 7 Suppl. 1:92-97 (2009)). In this new transgenic mouse model, all CD4^+ T cell responses are driven by the human MHC class II molecule. This mouse model was used to identify FVIII peptides presented by HLA-DRB1*1501 that drive anti-FVIII immune responses in these mice.
Hemophilic HLA-DRB15 E17 mice: HLA-DRB1*1501^+/− E17^−/− mice as described in Reipert et al., J. Thromb. Haemost. 7 Suppl. 1:92-97 (2009). Mice were all male and aged 8 to 12 weeks at the beginning of the experiment.
Immunization with human recombinant FVIII: HLA-DRB1*1501^+/− E17^−/− mice received between 4 and 8 intravenous or subcutaneous doses of 0.2 μg or 1 μg human rFVIII at weekly intervals. rFVIII was diluted in the original formulation buffer or Dulbecco phosphate buffered saline containing calcium and magnesium (DPBS; Sigma Aldrich, St. Louis, Mo., USA).
Cell preparation: Spleens were obtained 3 to 7 days after the last immunization with rFVIII. Spleen cells were minced and passed through a 70 μm cell strainer (Becton Dickinson, Franklin Lakes, N.J.). Single cells were collected in culture medium: RPMI 1640 medium (Gibco, Invitrogen, Life Technologies, Carlsbad, Calif.) supplemented with 10% preselected fetal calf serum (FCS; Hyclone, Logan, Utah), 2 mM L-glutamine, 100 U/mL penicillin/streptomycin (both from Gibco), and 5×10^−5 M mercaptoethanol (Sigma-Aldrich). Erythrocytes were lysed using hypotonic buffer (pH 7.2) composed of 0.15 M ammonium chloride, 10 mM potassium bicarbonate (both from Merck, Darmstadt, Germany) and 0.1 mM ethylene-diaminetetraacetic acid (Sigma-Aldrich). Cells were washed and counted using a Coulter Counter Z1. […]
As for “AWPKMHTVNGYVNRSLPGLIG (listed as Homo sapiens) [FVIII^246-266]”, the “involvement in the immune response mounted against FVIII protein” value (from here on “involvement”) is “involved in the immune response”.

Consider “QANRSPLPIAKVSSFPSIRPIYLT (listed as Homo sapiens) [FVIII^1401-1424]”, for which the “involvement” value is “involved in the immune response”.

For “TVVITLKNMASHPVSLHAVGV (listed as Homo sapiens) [FVIII^102-122]”, the “involvement” value was “involved in the immune response”.

The values are drawn from US8969524B2, “FVIII peptides for immune tolerance induction and immunodiagnostics” (Baxter International Inc., priority 2010, dated 2015).
